# Laboratory results taken from ChEMBL document CHEMBL5608163, “Structure modification of anoplin for fighting resistant bacteria” (Eur J Med Chem, 2024).
# Peptide text beside a SMILES is read from it.
# Key:
# Enterococcus faecium [1] = assay: Antibacterial activity against Enterococcus faecium; format: functional
# Pseudomonas aeruginosa [2] = assay: Antibacterial activity against Pseudomonas aeruginosa ATCC 15442 assessed as reduction in bacterial cell growth incubated for 18 hrs by two fold serial microdilution method; format: functional
# [3] = Hemolytic activity in human RBC assessed as hemolysis; format: toxicity, cell-based, Erythrocyte; conditions: red blood cells
# Erythrocyte = assay: Hemolytic activity in sheep RBC incubated for 30 mins; format: toxicity, cell-based, Ovis aries; conditions: 0.5 h
# Escherichia coli [4] = assay: Antibacterial activity against wild type Escherichia coli MG1655 assessed as reduction in bacterial growth incubated for 18 to 24 hrs by broth micro-dilution method; format: functional; conditions: time 18-24 hrs
# Staphylococcus aureus [5] = assay: Antibacterial activity against Staphylococcus aureus ATCC 29213 assessed as bacterial growth inhibition measured for 18 hrs by CLSI-protocol based Mueller-Hinton Broth micro-dilution assay; format: functional
# Escherichia coli [6] = assay: Antibacterial activity against Escherichia coli MG1655 assessed as bacterial growth inhibition measured for 18 hrs by CLSI-protocol based Mueller-Hinton Broth micro-dilution assay; format: functional
# Escherichia coli [7] = assay: Antibacterial activity against Escherichia coli ATCC 25922 assessed as reduction in bacterial growth measured after 24 hrs by Mueller-Hinton broth based two-fold serial dilution method; format: functional
# Staphylococcus aureus [8] = assay: Antibacterial activity against Staphylococcus aureus ATCC 25923 assessed as reduction in bacterial growth measured after 24 hrs by Mueller-Hinton broth based two-fold serial dilution method; format: functional
# Staphylococcus aureus [9] = assay: Antibacterial activity against methicillin-resistant Staphylococcus aureus ATCC BAA1720 assessed as bacterial growth inhibition measured for 18 hrs by CLSI-protocol based Mueller-Hinton Broth micro-dilution assay; format: functional
# Bacillus subtilis [10] = assay: Antimicrobial activity against Bacillus subtilis assessed as reduction in microbial growth measured after 18 to 20 hrs by Mueller-Hinton broth based two-fold serial dilution method; format: functional; conditions: time 18-20 hrs
# Escherichia coli [11] = assay: Antibacterial activity against Escherichia coli K12 assessed as bacterial growth inhibition measured for 18 hrs by CLSI-protocol based Mueller-Hinton Broth micro-dilution assay; format: functional
# Bacillus subtilis [12] = assay: Antibacterial activity against Bacillus subtilis assessed as reduction in bacterial growth incubated for 20 hrs by broth microdilution assay; format: functional
# Pseudomonas aeruginosa [13] = assay: Antibacterial activity against Pseudomonas aeruginosa assessed as reduction in bacterial growth incubated for 20 hrs by broth microdilution assay; format: functional
# Escherichia coli [14] = assay: Antibacterial activity against Escherichia coli assessed as reduction in bacterial growth incubated for 20 hrs by broth microdilution assay; format: functional
# Pseudomonas aeruginosa [15] = assay: Antibacterial activity against Pseudomonas aeruginosa PAO1 assessed as bacterial growth inhibition measured for 18 hrs by CLSI-protocol based Mueller-Hinton Broth micro-dilution assay; format: functional
# Salmonella typhimurium = assay: Antibacterial activity against Salmonella enterica subsp. enterica serovar Typhimurium LT2 assessed as bacterial growth inhibition measured for 18 hrs by CLSI-protocol based Mueller-Hinton Broth micro-dilution assay; format: functional
# [16] = Hemolytic activity against Red blood cells (unknown origin) incubated for 1 hr by spectrophotometric analysis; format: toxicity, cell-based, Erythrocyte
# Pseudomonas aeruginosa [17] = assay: Antibacterial activity against Pseudomonas aeruginosa ATCC 27853 assessed as bacterial growth inhibition measured for 18 hrs by CLSI-protocol based Mueller-Hinton Broth micro-dilution assay; format: functional
# Staphylococcus aureus [18] = assay: Antibacterial activity against Staphylococcus aureus assessed as bacterial growth inhibition incubated for 20 hrs by broth microdilution assay; format: functional
# Bacillus subtilis [19] = assay: Antibacterial activity against Bacillus subtilis 168 assessed as bacterial growth inhibition measured for 18 hrs by CLSI-protocol based Mueller-Hinton Broth micro-dilution assay; format: functional
# Staphylococcus aureus [20] = assay: Antibacterial activity against Staphylococcus aureus; format: functional
# Pseudomonas aeruginosa [21] = assay: Antibacterial activity against Pseudomonas aeruginosa; format: functional
# Escherichia coli [22] = assay: Antibacterial activity against Escherichia coli; format: functional
# [23] = Hemolytic activity in human RBC assessed as hemolysis measured after 24 hrs; format: toxicity, cell-based, Erythrocyte; conditions: red blood cells
# [24] = Hemolytic activity in human red blood cells; format: toxicity, cell-based, Erythrocyte; conditions: red blood cells
# Pseudomonas aeruginosa [25] = assay: Antibacterial activity against Pseudomonas aeruginosa ATCC 27853 assessed as reduction in microbial growth incubated for 16 to 20 hrs by CLSI protocol based Muller Hinton broth assay; format: functional; conditions: time 16-20 hrs
# Staphylococcus aureus [26] = assay: Antibacterial activity against methicillin-resistant Staphylococcus aureus ATCC 33591 assessed as reduction in bacterial growth incubated for 18 hrs by agar dilution method; format: functional
# Bacillus subtilis [27] = assay: Antibacterial activity against Bacillus subtilis assessed as reduction in bacterial growth incubated for 24 hrs by broth microdilution assay; format: functional
# Escherichia coli [28] = assay: Antibacterial activity against Escherichia coli ATCC 25922 assessed as reduction in microbial growth incubated for 16 to 20 hrs by CLSI protocol based Muller Hinton broth assay; format: functional; conditions: time 16-20 hrs
# [29] = system: Mycolicibacterium smegmatis; assay: Antimycobacterial activity against Mycobacterium smegmatis mc2 155 assessed as reduction in bacterial cell growth by resazurin reduction method; format: functional
# Enterococcus faecium [30] = assay: Antibacterial activity against vancomycin resistant Enterococcus faecium ATCC 700221 assessed as inhibition of bacterial growth incubated for 48 hrs by CLSI-based broth microdilution assay; format: functional
# Escherichia coli [31] = assay: Antibacterial activity against Escherichia coli ATCC 25922 assessed as bacterial growth inhibition measured after 48 hrs by resazurin assay; format: functional
# Staphylococcus aureus [32] = assay: Antibacterial activity against Staphylococcus aureus ATCC 25923 assessed as reduction in bacterial growth incubated for 24 hrs by serial dilution method; format: functional
# Enterococcus faecium [33] = assay: Antibacterial activity against Enterococcus faecium ATCC 700221 assessed as reduction in bacterial cell growth by CLSI broth microdilution method; format: functional
# Pseudomonas aeruginosa [34] = assay: Antibacterial activity against Pseudomonas aeruginosa ATCC 27853 assessed as reduction in bacterial growth by broth microdilution method; format: functional
# [35] = Hemolytic activity in human RBC; format: toxicity, cell-based, Erythrocyte; conditions: red blood cells
# Bacillus subtilis [36] = assay: Antibacterial activity against Bacillus subtilis assessed as reduction in microbial growth; format: functional
# Enterococcus faecalis = assay: Antibacterial activity against Enterococcus faecalis assessed as reduction in microbial growth; format: functional
# Klebsiella pneumoniae = assay: Antibacterial activity against Klebsiella pneumoniae; format: functional
# [37] = system: Staphylococcus epidermidis; assay: Antibacterial activity against Staphylococcus epidermidis assessed as reduction in microbial growth; format: functional
# Staphylococcus aureus [38] = assay: Antibacterial activity against Staphylococcus aureus ATCC 25923 assessed as reduction in bacterial growth incubated for 18 to 24 hrs by broth microdilution method; format: functional; conditions: time 18-24 hrs
# Acinetobacter baumannii = assay: Antibacterial activity against Acinetobacter baumannii assessed as bacterial growth inhibition; format: functional
# Escherichia coli [39] = assay: Antibacterial activity against Escherichia coli ATCC 25922 assessed as reduction in bacterial growth by broth microdilution method; format: functional
# Pseudomonas aeruginosa [40] = assay: Antibacterial activity against Pseudomonas aeruginosa ATCC 15442 assessed as growth inhibition; format: functional
# Escherichia coli [41] = assay: Antibacterial activity against Escherichia coli ATCC 25922 assessed as reduction in bacterial growth; format: functional
# Enterococcus faecium [42] = assay: Antibacterial activity against Enterococcus faecium ATCC 27270; format: functional
# Pseudomonas aeruginosa [43] = assay: Antibacterial activity against Pseudomonas aeruginosa assessed as reduction in bacterial growth by broth microdilution method; format: functional
# Staphylococcus aureus [44] = assay: Antibacterial activity against Staphylococcus aureus ATCC 29213 assessed as bacterial growth inhibition measured after 18 hrs by CLSI protocol based two-fold serial microdilution method; format: functional
# Escherichia coli [45] = assay: Antibacterial activity against Escherichia coli DH5alpha assessed as bacterial growth inhibition; format: functional
# Bacillus subtilis [46] = assay: Antibacterial activity against Bacillus subtilis ATCC 23857 assessed as reduction in bacterial cell growth incubated for 24 hrs by broth micro-dilution analysis; format: functional
compound,measurement,setting,value
CC[C@H](C)[C@H](NC(=O)[C@H](CCCCN)NC(=O)[C@H](CCCCN)NC(=O)[C@H](CC(C)C)NC(=O)[C@H](CC(C)C)NC(=O)CN)C(=O)N[C@@H](CCCCN)C(=O)N[C@H](C(=O)N[C@@H](CC(C)C)C(=O)N[C@@H](CC(C)C)C(N)=O)[C@@H](C)O,MIC,Enterococcus faecium [1],171 µM
same,MIC,Pseudomonas aeruginosa [2],56.8 µM
same,HC50,[3],269 µM
CC.CC[C@H](C)[C@H](NC(=O)[C@H](CCCNC(=N)N)NC(=O)[C@H](CCCCN)NC(=O)[C@H](CC(C)C)NC(=O)[C@H](CC(C)C)NC(=O)CN)C(=O)N[C@@H](CCCCN)C(=O)N[C@H](C(=O)N[C@@H](CC(C)C)C(=O)N[C@@H](CC(C)C)C(N)=O)[C@@H](C)O,HC10,Erythrocyte,> 64 µM
same,MIC,Escherichia coli [4],32 µM
same,MIC,Staphylococcus aureus [5],≥ 64 µM
same,MIC,Escherichia coli [6],32 µM
same,MIC,Escherichia coli [7],> 22.6 µM
same,MIC,Staphylococcus aureus [8],11.3 µM
same,MIC,Staphylococcus aureus [9],≥ 64 µM
same,MIC,Bacillus subtilis [10],16 µM
same,MIC,Escherichia coli [11],32 µM
same,MIC,Bacillus subtilis [12],32 µM
same,MIC,Pseudomonas aeruginosa [13],32 µM
same,MIC,Escherichia coli [14],64 µM
same,MIC,Pseudomonas aeruginosa [15],16 µM
same,MIC,Salmonella typhimurium,64 µM
same,HC50 at 1 h,[16],> 400 µM
same,MIC,Pseudomonas aeruginosa [17],32 µM
same,MIC,Staphylococcus aureus [18],64 µM
same,MIC,Bacillus subtilis [19],16 µM
CC[C@H](C)[C@H](NC(=O)[C@H](CCCCN)NC(=O)[C@H](CCCCN)NC(=O)[C@H](CC(C)C)NC(=O)[C@H](CC(C)C)NC(=O)CN)C(=O)N[C@@H](CCCCN)C(=O)N[C@@H](CCCCN)C(=O)N[C@@H](CC(C)C)C(=O)N[C@@H](CC(C)C)C(N)=O,MIC,Staphylococcus aureus [20],256 µM
same,MIC,Enterococcus faecium [1],56.9 µM
same,MIC,Pseudomonas aeruginosa [21],28.4 µM
same,MIC,Escherichia coli [22],25 µM
same,HC50 at 24 h,[23],> 500 µM
same,HC50,[24],< 500 µM
CC[C@H](C)[C@H](NC(=O)[C@H](Cc1ccccc1)NC(=O)[C@H](CCCCN)NC(=O)[C@H](CC(C)C)NC(=O)[C@H](CC(C)C)NC(=O)CN)C(=O)N[C@@H](CCCCN)C(=O)N[C@@H](CCCCN)C(=O)N[C@@H](CC(C)C)C(=O)N[C@@H](CC(C)C)C(N)=O (H-GLLKFIKKLL-NH2),MIC,Pseudomonas aeruginosa [25],28.4 µM
same,MIC,Staphylococcus aureus [26],9.5 µM
same,MIC,Bacillus subtilis [27],25.6 µM
same,HC50 at 24 h,[23],13.6 µM
same,MIC,Escherichia coli [28],9.5 µM
same,MIC,[29],12.8 µM
same,MIC,Enterococcus faecium [30],9.5 µM
CC[C@H](C)[C@H](NC(=O)[C@H](CCCNC(=N)N)NC(=O)[C@H](CCCCN)NC(=O)[C@H](CC(C)C)NC(=O)[C@H](CC(C)C)NC(=O)CN)C(=O)N[C@@H](CCCCN)C(=O)N[C@@H](CCCCN)C(=O)N[C@@H](CC(C)C)C(=O)N[C@@H](CC(C)C)C(N)=O (H-GLLKRIKKLL-NH2),MIC,Escherichia coli [31],8.5 µM
same,MIC,Staphylococcus aureus [32],4.2 µM
same,MIC,Enterococcus faecium [33],66.3 µM
same,MIC,Pseudomonas aeruginosa [34],28.4 µM
same,HC50,[3],> 312 µM
CC[C@H](C)[C@H](NC(=O)[C@H](CCCNC(=N)N)NC(=O)[C@H](CCCCN)NC(=O)[C@H](CC(C)C)NC(=O)[C@H](CC(C)C)NC(=O)CN)C(=O)N[C@@H](CCCCN)C(=O)N[C@H](C(=O)N[C@@H](CC(C)C)C(=O)N[C@@H](C)C(N)=O)[C@@H](C)O (H-GLLKRIKTLA-NH2),HC50,[35],≥ 512 µM
same,MIC,Bacillus subtilis [36],32 µM
same,MIC,Enterococcus faecalis,≥ 512 µM
same,MIC,Klebsiella pneumoniae,256 µM
same,MIC,[37],64 µM
same,MIC,Staphylococcus aureus [38],43.2 µM
same,MIC,Acinetobacter baumannii,≥ 512 µM
same,MIC,Escherichia coli [39],43.2 µM
same,MIC,Pseudomonas aeruginosa [40],64 µM
CC[C@H](C)[C@H](NC(=O)[C@H](Cc1c[nH]c2ccccc12)NC(=O)[C@H](CCCCN)NC(=O)[C@H](CC(C)C)NC(=O)[C@H](CC(C)C)NC(=O)CN)C(=O)N[C@@H](CCCCN)C(=O)N[C@H](C(=O)N[C@@H](CC(C)C)C(=O)N[C@@H](CC(C)C)C(N)=O)[C@@H](C)O (H-GLLKWIKTLL-NH2),MIC,Staphylococcus aureus [20],19.6 µM
same,MIC,Escherichia coli [22],14.2 µM
same,MIC,Escherichia coli [41],62.2 µM
same,MIC,Enterococcus faecium [42],9.5 µM
same,MIC,Pseudomonas aeruginosa [43],28.4 µM
same,MIC,Staphylococcus aureus [44],62.2 µM
same,HC50,[3],14 µM
CC[C@H](C)[C@H](NC(=O)[C@H](CCCNC(=N)N)NC(=O)[C@H](CCCCN)NC(=O)[C@H](CC(C)C)NC(=O)[C@H](CC(C)C)NC(=O)CN)C(=O)N[C@@H](CCCCN)C(=O)N[C@H](C(=O)N[C@@H](CC(C)C)C(=O)N[C@@H](CC(C)C)C(N)=O)[C@@H](C)O [ANOPLIN],MIC,Escherichia coli [45],86.7 µM
same,MIC,Bacillus subtilis [46],43.4 µM
